These results are taken from paper PMC5556019, “Targeting Apolipoprotein E/Amyloid β Binding by Peptoid CPO_Aβ17-21 P Ameliorates Alzheimer’s Disease Related Pathology and Cognitive Decline” (Scientific Reports, 2017).

Numbered stars: 1 amine (or outer) side, 2 acyl side, 3 side chain; on linkers, the order of the positions; unused ones are H or OH. Bridge positions count the residues as written; N and C are the ends. Square brackets hold non-standard residues; d marks the D form. Peptide text beside a SMILES is read from it. ξ: configuration not given here. N(CH2CH2CO)Gly = O=C(CN(CCC(=O)[*:3])[*:1])[*:2]; Nphe = O=C(O)CNCc1ccccc1; Nleu = CC(C)CNCC(=O)O; ξP = O=C(O)C1CCCN1; Sar = CNCC(=O)O

Series [1] in a line: Thioflavin T aggregation assay, peptoid incubated alone. The series is classed as physicochemical. The settings on record: up to 100 µM, 37 °C, 10 days, 100 mM Tris buffer pH 7.4. The protocol: Peptide Aβ42 or peptoid CPO_Aβ17-21 P were incubated alone at a concentration of 100 µM over a period of 7–10 days at 37 °C in 100 mM Tris buffer (pH 7.4). […] In aggregation inhibition experiments, apoE4 was pre-incubated with CPO_Aβ17-21 P in a molar ratio of 1:2 for 6 hrs at 37 °C followed by addition to freshly reconstituted Aβ42 on ice (molar ratio 100:1:2, Aβ42:apoE4:peptoid). As a control, Aβ42 was also incubated with CPO_Aβ17-21 P at a molar ratio of 100:2. For peptide Aβ40 all the experiments were conducted under the same conditions as Aβ42 except the peptide concentration was 400 µM. The molar ratio of Aβ40:apoE4:CPO_Aβ17-21 P was 100:1:2. (400 µM Aβ40:4 µM apoE4:8 µM CPO_Aβ17-21 P). Fibril formation by the different peptides at various time points was evaluated by a standard Thioflavin-T assay according to previously published protocols, [33].The samples were diluted in buffer containing 50 mM glycine, 2 µM Thioflavin T pH 9.2, and read on a Molecular Devices SpectraMax M2 spectrophotometer (Sunnyvale, CA) at excitation and emission wavelengths 440 and 482 nm.

The subject of series [2] is APP/PS1 Tg mice. Kind of series: Total amyloid burden by 6E10/4G8 immunohistochemistry. It is filed as in vivo, mouse. The settings on record: one-tailed unpaired t-test. The protocol:
The effect of CPO_Aβ17-21 P on Aβ deposition was tested in APP/PS1 Tg mice with plaque pathology. This AD mouse model develops plaque pathology from the age of 3 months. Animals were divided into two groups and received intraperitoneally (i.p.) injections of 0.2 mg of CPO_ Aβ17–21 P per mouse in sterile saline (n = 11, 5 male, 6 female) or saline alone (n = 10, 5 male, 5 female) as a control twice weekly for 4 months, beginning at age 3 months. During the treatment, veterinary staff monitored animals for any signs of toxicity, such as changes in body weight, physical appearance, and altered behavior. Animals were sacrificed a week after administration of the last treatment dose and behavioral testing. […]
Mice were anesthetized with sodium pentobarbital (150 mg/kg, i.p.) and blood was collected via cardiac puncture and plasma was separated by centrifugation. […] To examine brain inflammation levels associated with treatment, we assessed the degree of astrocytosis with GFAP immunoreactivity and the degree of microgliosis with Iba1 and CD11b immunoreactivity as previously published, [37], [39], [40]. […]
Amyloid burden was measured by a Bioquant stereology (BIOQUANT Image Analysis Corporation, Nashville, TN) semi-automated image analysis system using a randomized and unbiased sampling scheme according to our previous published protocol, [19], [37], [39], [40]. […]

In series [3] the test system is APP/PS1 Tg mice. Kind of series: Astrocytosis and microgliosis by GFAP, CD11b and Iba1 immunoreactivity. It is filed as in vivo, mouse. The settings on record: semi-quantitative rating 0-4, versus vehicle. The protocol:
(§1) The effect of CPO_Aβ17-21 P on Aβ deposition was tested in APP/PS1 Tg mice with plaque pathology. This AD mouse model develops plaque pathology from the age of 3 months. Animals were divided into two groups and received intraperitoneally (i.p.) injections of 0.2 mg of CPO_ Aβ17–21 P per mouse in sterile saline (n = 11, 5 male, 6 female) or saline alone (n = 10, 5 male, 5 female) as a control twice weekly for 4 months, beginning at age 3 months. During the treatment, veterinary staff monitored animals for any signs of toxicity, such as changes in body weight, physical appearance, and altered behavior. Animals were sacrificed a week after administration of the last treatment dose and behavioral testing. All mouse care and experimental procedures were compliant with guidelines of animal experimentation and were approved by the Institutional Animal Care and Use Committee at the New York University School of Medicine.
Mice were anesthetized with sodium pentobarbital (150 mg/kg, i.p.) and blood was collected via cardiac puncture and plasma was separated by centrifugation. Animals were perfused transaortically. The brains and internal organs were collected and cut into halves, one half immersion-fixed in periodate-lysine paraformaldehyde (PLP) for histopathological analysis, and another half snap-frozen for biochemical studies as previously described. Serial coronal brain sections (40 μm) were cut evenly spaced every 400 μm μm along the entire rostro-caudal brain axis and stained for immunohistochemical analysis with: (1) a mixture of anti-Aβ monoclonal antibodies 6E10/4G8 (1 :2000) (Covance, Princeton, NJ), (2) polyclonal anti-glial fibrillary acidic protein (GFAP) antibody (1:1000) (Dako, Carpinteria, CA), (3) polyclonal anti-Iba1 antibody (1:1000) (Wako Chemicals, Richmond, VA) and (4) monoclonal anti-CD11b (1: 500) (Serotec, Raleigh, NC). To measure treated mice brain total amyloid burden change, two different anti-Aβ monoclonal antibodies with distinct epitopes 6E10 (epitope Aβ1–16) and 4G8 (epitope Aβ17–24) were used[38]. To examine brain inflammation levels associated with treatment, we assessed the degree of astrocytosis with GFAP immunoreactivity and the degree of microgliosis with Iba1 and CD11b immunoreactivity as previously published, [37], [39], [40]. GFAP is a component of the glial intermediate filaments that form part of the cytoskeleton and is found predominantly in astrocytes. CD11b is a protein subunit that forms integrin alpha-M beta-2 (αMβ2) molecule, also known as MAC-1 or complement receptor 3 (CR3). CD11b monoclonal antibodies are commonly used for detection of microglial activation at the earliest stages of plaque development. In addition, Iba1 (ionized calcium binding adaptor molecule) antibody was used to label the entire microglia population including activated and resting microglia, a marker for detecting generic microglia, [43]. Immunohistochemistry was performed on free floating coronal brain sections. Details of the procedure and techniques were described previously, [37], [39], [40]. […] Human Alzheimer disease patients brain sections were used for positive control immunostaining, sequential mouse brain sections with omission of the primary antibody were used for negative immunostaining controls.
The assessment of astrocytosis and microgliosis were based on a semi-quantitative analysis, using methods we have previously published by a rater blinded to the treatment status of the mice[19], [37], [39], [40]. Prior to analysis, brains were microscopically examined and rated on a scale from 0–4, in increments of 0.5, depending on the degree of pathology and/or the activation stage of the glial cells. All stained cortical and hippocampal sections were analyzed at 10x magnification. Approximately 8 cortical sections and 6 hippocampal sections were analyzed per animal. […]

For series [4], the system named is APP/PS1 Tg mice. Description: Plasma total cholesterol level. It is filed as in vivo. The conditions noted are these: 0.2 mg per mouse i.p. twice weekly for 4 months; p > 0.05. The protocol: as §1
Plasma cholesterol level was measured by using a Cholesterol E kit (Wako Diagnostics, Richmond, VA)[45]. The Cholesterol E is an enzymatic colorimetric method for the quantitative determination of total cholesterol in the blood.

In the case of `CC(C)CN1CC(=O)N2CCCC2C(=O)N(Cc2ccccc2)CC(=O)N(Cc2ccccc2)CC(=O)N(C)CC(=O)N(CC(N)=O)CCC1=O` (stereo not shown) [CPO_Aβ17-21 P] ([Nleu][ξP][Nphe][Nphe][Sar][N(CH2CH2CO)Gly]-NH2; lactam N-6), the “formation of aggregates or fibrils by the peptoid alone” value in series [1] is listed as “did not produce aggregates or fibrils”. In addition, in series [2] (p = 0.0226 versus vehicle), the “total amyloid burden (6E10/4G8 immunoreactivity), cortex” value is “significant reduction”. The “total amyloid burden (6E10/4G8 immunoreactivity), hippocampus” value in series [2] (p = 0.0361 versus vehicle) is reported as “significant reduction”. Moreover, in series [3], the “cortical astrogliosis (GFAP immunoreactivity)” value was “no significant effect”, the “cortical microgliosis (CD11b immunoreactivity)” value is recorded as “decreased”, the “cortical microgliosis (Iba1 immunoreactivity)” value is “reduced” and the “hippocampal astrogliosis (GFAP immunoreactivity)” value was “decreased”. In series [3], the “hippocampal microgliosis (CD11b immunoreactivity)” value is given as “no significant effect” and the “hippocampal microgliosis (Iba1 immunoreactivity)” value is reported as “no significant effect”. Moreover, the “plasma total cholesterol level, treated versus vehicle” value in series [4] was “no significant difference”.
